Results as given in ChEMBL document CHEMBL4507280 (2021).

Columns and labels:
[1] = molecular target: Serine/threonine-protein kinase RIO3 (Homo sapiens) (UniProt O14730); conditions: Compound concentration 1000.0 nM
[2] = molecular target: Mitogen-activated protein kinase kinase kinase 3 (Homo sapiens) (UniProt Q99759); conditions: Compound concentration 1000.0 nM
[3] = molecular target: Serine/threonine-protein kinase 24 (Homo sapiens) (UniProt Q9Y6E0); conditions: Compound concentration 1000.0 nM
[4] = molecular target: Serine/threonine-protein kinase pim-2 (Homo sapiens) (UniProt Q9P1W9); conditions: Compound concentration 1000.0 nM
[5] = tested on: Epidermal growth factor receptor (Homo sapiens), P00533 [UNDEFINED MUTATION]; conditions: Compound concentration 1000.0 nM
[6] = molecular target: Membrane-associated tyrosine- and threonine-specific cdc2-inhibitory kinase (Homo sapiens) (UniProt Q99640); conditions: Compound concentration 1000.0 nM
[7] = tested on: Mast/stem cell growth factor receptor Kit (Homo sapiens), P10721 [V559D]; conditions: Compound concentration 1000.0 nM
[8] = molecular target: Serine/threonine-protein kinase 35 (Homo sapiens) (UniProt Q8TDR2); conditions: Compound concentration 1000.0 nM
[9] = molecular target: Mitogen-activated protein kinase kinase kinase 9 (Homo sapiens) (UniProt P80192); conditions: Compound concentration 1000.0 nM
[10] = molecular target: Kappa-type opioid receptor (Homo sapiens) (UniProt P41145); conditions: Compound concentration 10.0 uM
[11] = molecular target: Serine/threonine-protein kinase tousled-like 1 (Homo sapiens) (UniProt Q9UKI8); conditions: Compound concentration 1000.0 nM
[12] = molecular target: Tyrosine-protein kinase Lck (Homo sapiens) (UniProt P06239); conditions: Compound concentration 1000.0 nM
[13] = molecular target: Serine/threonine-protein kinase TBK1 (Homo sapiens) (UniProt Q9UHD2); conditions: Compound concentration 1000.0 nM
[14] = molecular target: SRSF protein kinase 1 (Homo sapiens) (UniProt Q96SB4); conditions: Compound concentration 1000.0 nM
[15] = molecular target: Bone morphogenetic protein receptor type-2 (Homo sapiens) (UniProt Q13873); conditions: Compound concentration 1000.0 nM
[16] = molecular target: NT-3 growth factor receptor (Homo sapiens) (UniProt Q16288); conditions: Compound concentration 1000.0 nM
[17] = tested on: Epidermal growth factor receptor (Homo sapiens), P00533 [UNDEFINED MUTATION]; conditions: Compound concentration 1000.0 nM; remark: listed apart in the source
[18] = molecular target: Mitogen-activated protein kinase kinase kinase kinase 3 (Homo sapiens) (UniProt Q8IVH8); conditions: Compound concentration 1000.0 nM
[19] = molecular target: Calcium/calmodulin-dependent protein kinase type II subunit alpha (Homo sapiens) (UniProt Q9UQM7); conditions: Compound concentration 1000.0 nM
[20] = molecular target: Ribosomal protein S6 kinase alpha-4 (Homo sapiens) (UniProt O75676); conditions: Compound concentration 1000.0 nM
[21] = tested on: Epidermal growth factor receptor (Homo sapiens), P00533 [T790M]; conditions: Compound concentration 1000.0 nM
[22] = tested on: Receptor-type tyrosine-protein kinase FLT3 (Homo sapiens), P36888 [N841I]; conditions: Compound concentration 1000.0 nM
[23] = molecular target: Homeodomain-interacting protein kinase 2 (Homo sapiens) (UniProt Q9H2X6); conditions: Compound concentration 1000.0 nM
[24] = tested on: Phosphatidylinositol 4,5-bisphosphate 3-kinase catalytic subunit alpha isoform (Homo sapiens), P42336 [E545A]; conditions: Compound concentration 1000.0 nM
[25] = molecular target: MAP/microtubule affinity-regulating kinase 4 (Homo sapiens) (UniProt Q96L34); conditions: Compound concentration 1000.0 nM
[26] = molecular target: Tyrosine-protein kinase ABL2 (Homo sapiens) (UniProt P42684); conditions: Compound concentration 1000.0 nM
[27] = molecular target: Mitogen-activated protein kinase kinase kinase 6 (Homo sapiens) (UniProt O95382); conditions: Compound concentration 1000.0 nM
[28] = molecular target: Ephrin type-A receptor 5 (Homo sapiens) (UniProt P54756); conditions: Compound concentration 1000.0 nM
[29] = molecular target: T1, Muscarinic acetylcholine receptor M2 (Homo sapiens) (UniProt P08172); conditions: Compound concentration 10.0 uM
T1 sequence (whole entry): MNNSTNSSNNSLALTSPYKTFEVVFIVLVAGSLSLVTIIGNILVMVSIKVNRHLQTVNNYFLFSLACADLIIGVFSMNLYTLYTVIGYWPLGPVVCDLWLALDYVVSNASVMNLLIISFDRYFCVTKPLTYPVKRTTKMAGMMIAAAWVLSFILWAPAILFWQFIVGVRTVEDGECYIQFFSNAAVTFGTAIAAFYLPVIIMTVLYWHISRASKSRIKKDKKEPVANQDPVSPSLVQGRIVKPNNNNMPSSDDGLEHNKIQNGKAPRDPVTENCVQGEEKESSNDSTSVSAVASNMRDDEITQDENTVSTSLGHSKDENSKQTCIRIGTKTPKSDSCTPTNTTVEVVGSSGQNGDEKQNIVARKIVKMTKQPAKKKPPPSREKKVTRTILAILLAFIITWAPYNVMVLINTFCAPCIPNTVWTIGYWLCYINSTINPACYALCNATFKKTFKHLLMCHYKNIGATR

[30] = molecular target: Ephrin type-B receptor 4 (Homo sapiens) (UniProt P54760); conditions: Compound concentration 1000.0 nM
[31] = molecular target: Serine/threonine-protein kinase PAK 2 (Homo sapiens) (UniProt Q13177); conditions: Compound concentration 1000.0 nM
[32] = molecular target: Microtubule-associated serine/threonine-protein kinase 1 (Homo sapiens) (UniProt Q9Y2H9); conditions: Compound concentration 1000.0 nM
[33] = molecular target: TGF-beta receptor type-2 (Homo sapiens) (UniProt P37173); conditions: Compound concentration 1000.0 nM
[34] = molecular target: Serine/threonine-protein kinase 4 (Homo sapiens) (UniProt Q13043); conditions: Compound concentration 1000.0 nM
[35] = molecular target: Serine/threonine-protein kinase WNK4 (Homo sapiens) (UniProt Q96J92); conditions: Compound concentration 1000.0 nM
[36] = molecular target: Rho-associated protein kinase 1 (Homo sapiens) (UniProt Q13464); conditions: Compound concentration 1000.0 nM
[37] = molecular target: Serine/threonine-protein kinase tousled-like 2 (Homo sapiens) (UniProt Q86UE8); conditions: Compound concentration 1000.0 nM
[38] = molecular target: Cyclin-dependent kinase-like 2 (Homo sapiens) (UniProt Q92772); conditions: Compound concentration 1000.0 nM

Sequence of Serine/threonine-protein kinase tousled-like 2 (Homo sapiens) (Q86UE8 whole entry, looked up): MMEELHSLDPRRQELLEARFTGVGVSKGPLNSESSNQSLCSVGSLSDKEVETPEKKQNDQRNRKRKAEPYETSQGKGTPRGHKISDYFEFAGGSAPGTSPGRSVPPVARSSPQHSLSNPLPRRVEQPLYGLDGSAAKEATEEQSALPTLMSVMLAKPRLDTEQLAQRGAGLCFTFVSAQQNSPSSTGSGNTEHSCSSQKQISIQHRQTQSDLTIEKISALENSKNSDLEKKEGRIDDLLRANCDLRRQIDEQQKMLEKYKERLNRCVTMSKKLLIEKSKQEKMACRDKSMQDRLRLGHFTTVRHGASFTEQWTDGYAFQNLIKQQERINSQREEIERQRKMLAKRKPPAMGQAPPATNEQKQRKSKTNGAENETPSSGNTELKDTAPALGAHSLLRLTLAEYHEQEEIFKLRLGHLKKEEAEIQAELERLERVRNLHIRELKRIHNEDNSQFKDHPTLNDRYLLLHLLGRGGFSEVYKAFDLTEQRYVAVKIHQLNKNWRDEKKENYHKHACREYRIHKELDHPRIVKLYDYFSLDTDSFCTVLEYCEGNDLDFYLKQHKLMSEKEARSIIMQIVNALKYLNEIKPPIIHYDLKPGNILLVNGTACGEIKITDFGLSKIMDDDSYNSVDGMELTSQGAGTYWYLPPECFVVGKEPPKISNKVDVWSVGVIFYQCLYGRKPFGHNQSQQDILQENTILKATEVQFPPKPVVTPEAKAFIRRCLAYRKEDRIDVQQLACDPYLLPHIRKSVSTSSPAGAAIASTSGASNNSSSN
Sequence of Serine/threonine-protein kinase WNK4 (Homo sapiens) (Q96J92 whole entry): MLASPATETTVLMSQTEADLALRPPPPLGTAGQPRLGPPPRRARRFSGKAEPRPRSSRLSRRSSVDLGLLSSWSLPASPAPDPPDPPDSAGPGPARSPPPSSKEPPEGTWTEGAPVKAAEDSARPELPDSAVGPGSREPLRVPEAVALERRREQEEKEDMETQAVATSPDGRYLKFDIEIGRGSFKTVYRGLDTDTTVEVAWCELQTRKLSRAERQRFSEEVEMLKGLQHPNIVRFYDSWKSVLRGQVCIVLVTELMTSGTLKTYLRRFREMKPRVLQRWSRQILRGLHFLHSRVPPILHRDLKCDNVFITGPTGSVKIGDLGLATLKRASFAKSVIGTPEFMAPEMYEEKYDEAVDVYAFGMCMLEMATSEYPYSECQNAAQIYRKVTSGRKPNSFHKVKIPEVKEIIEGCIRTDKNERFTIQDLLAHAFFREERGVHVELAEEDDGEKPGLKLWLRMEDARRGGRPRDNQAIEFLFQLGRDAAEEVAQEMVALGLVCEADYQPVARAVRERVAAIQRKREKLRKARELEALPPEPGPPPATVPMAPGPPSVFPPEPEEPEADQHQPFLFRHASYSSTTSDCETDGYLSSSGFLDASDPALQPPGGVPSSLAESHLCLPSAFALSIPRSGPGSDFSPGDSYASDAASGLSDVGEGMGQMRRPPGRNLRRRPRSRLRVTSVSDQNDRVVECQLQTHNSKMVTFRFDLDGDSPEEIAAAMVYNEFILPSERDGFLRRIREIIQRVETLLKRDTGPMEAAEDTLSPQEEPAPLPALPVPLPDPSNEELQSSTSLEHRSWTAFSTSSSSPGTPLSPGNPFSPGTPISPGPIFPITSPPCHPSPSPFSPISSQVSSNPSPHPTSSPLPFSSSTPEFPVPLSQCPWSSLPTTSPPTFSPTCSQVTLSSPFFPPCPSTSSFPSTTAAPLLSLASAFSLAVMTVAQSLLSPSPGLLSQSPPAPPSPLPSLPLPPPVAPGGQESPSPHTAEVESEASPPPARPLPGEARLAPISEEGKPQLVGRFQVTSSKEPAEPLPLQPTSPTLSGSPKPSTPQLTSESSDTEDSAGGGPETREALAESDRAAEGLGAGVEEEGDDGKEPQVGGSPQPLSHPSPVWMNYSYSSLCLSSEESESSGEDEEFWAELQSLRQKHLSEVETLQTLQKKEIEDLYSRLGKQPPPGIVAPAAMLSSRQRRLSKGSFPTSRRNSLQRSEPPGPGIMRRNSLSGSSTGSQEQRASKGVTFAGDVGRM
Sequence of Serine/threonine-protein kinase 35 (Homo sapiens) (Q8TDR2 whole entry): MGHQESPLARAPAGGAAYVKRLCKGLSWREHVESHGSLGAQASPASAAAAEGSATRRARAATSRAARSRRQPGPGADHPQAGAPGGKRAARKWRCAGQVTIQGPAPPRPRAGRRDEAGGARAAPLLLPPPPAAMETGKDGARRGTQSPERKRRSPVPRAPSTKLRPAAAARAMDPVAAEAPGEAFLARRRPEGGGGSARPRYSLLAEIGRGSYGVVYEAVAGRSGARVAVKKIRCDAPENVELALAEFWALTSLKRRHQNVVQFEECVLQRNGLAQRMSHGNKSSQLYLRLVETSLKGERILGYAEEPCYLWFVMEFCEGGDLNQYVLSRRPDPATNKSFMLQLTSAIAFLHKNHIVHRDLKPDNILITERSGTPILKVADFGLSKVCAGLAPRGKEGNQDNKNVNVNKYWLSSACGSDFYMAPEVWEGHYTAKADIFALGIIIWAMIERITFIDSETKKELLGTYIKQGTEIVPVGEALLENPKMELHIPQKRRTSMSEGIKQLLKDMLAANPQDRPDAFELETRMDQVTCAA
Sequence of Homeodomain-interacting protein kinase 2 (Homo sapiens) (Q9H2X6 whole entry, looked up, canonical isoform): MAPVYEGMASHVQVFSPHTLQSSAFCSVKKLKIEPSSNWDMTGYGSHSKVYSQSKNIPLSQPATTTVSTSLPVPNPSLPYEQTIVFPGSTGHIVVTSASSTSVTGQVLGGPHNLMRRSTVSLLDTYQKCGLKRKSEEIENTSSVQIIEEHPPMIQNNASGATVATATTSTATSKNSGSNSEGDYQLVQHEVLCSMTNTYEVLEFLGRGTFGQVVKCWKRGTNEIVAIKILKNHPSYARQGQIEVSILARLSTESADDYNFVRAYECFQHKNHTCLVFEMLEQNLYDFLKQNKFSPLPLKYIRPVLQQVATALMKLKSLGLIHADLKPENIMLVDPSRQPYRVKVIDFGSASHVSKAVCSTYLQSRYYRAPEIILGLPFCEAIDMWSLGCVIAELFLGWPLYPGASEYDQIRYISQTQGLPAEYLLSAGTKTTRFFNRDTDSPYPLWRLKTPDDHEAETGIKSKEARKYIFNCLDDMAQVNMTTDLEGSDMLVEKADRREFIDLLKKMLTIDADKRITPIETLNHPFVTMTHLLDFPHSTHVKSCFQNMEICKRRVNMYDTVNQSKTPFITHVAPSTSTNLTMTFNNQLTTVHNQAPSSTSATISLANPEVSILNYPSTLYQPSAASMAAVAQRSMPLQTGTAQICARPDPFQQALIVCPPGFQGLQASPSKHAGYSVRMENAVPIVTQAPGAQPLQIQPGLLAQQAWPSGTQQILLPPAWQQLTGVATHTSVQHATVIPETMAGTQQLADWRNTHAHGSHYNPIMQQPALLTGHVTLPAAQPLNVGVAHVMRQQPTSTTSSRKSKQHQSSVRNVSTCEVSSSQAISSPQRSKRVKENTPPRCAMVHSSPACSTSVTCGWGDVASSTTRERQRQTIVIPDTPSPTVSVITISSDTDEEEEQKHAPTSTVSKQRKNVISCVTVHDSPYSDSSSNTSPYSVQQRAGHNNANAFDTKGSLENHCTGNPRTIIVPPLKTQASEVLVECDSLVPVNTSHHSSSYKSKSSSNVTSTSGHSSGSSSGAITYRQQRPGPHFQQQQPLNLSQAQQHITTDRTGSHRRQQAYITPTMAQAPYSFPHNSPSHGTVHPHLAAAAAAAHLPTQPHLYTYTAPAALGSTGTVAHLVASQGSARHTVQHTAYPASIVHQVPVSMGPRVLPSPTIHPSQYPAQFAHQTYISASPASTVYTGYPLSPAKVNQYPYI
Sequence of Tyrosine-protein kinase Lck (Homo sapiens) (P06239 2-509 limits assumed): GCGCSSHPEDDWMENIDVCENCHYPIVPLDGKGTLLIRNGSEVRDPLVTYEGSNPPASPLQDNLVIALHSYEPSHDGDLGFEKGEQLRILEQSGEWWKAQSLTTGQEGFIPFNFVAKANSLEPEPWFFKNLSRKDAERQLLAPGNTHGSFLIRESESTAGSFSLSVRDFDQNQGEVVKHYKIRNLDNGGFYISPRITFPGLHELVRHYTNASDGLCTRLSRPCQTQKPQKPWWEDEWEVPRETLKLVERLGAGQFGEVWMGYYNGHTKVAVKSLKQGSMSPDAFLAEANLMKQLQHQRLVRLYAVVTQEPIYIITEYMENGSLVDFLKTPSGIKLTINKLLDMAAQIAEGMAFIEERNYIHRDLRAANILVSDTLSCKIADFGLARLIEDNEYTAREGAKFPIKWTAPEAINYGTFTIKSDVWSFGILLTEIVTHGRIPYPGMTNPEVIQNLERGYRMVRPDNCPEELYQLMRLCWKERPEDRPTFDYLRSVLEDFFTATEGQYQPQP
Sequence of Serine/threonine-protein kinase RIO3 (Homo sapiens) (O14730 whole entry): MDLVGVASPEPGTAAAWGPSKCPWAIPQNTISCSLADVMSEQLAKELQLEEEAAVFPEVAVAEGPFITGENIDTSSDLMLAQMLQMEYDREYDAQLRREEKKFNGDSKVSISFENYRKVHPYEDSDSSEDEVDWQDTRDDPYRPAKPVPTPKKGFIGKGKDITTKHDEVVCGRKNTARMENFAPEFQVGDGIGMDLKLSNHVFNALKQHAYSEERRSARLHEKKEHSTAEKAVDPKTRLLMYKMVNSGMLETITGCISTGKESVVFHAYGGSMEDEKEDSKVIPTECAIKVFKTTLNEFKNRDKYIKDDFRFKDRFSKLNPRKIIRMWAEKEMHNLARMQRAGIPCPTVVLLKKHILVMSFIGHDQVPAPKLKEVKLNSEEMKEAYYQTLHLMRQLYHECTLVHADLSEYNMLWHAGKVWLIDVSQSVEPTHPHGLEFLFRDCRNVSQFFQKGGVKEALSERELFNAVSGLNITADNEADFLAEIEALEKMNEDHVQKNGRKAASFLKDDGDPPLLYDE

Row | Compound | residual activity [1] [%] | residual activity [2] [%] | residual activity [3] [%] | residual activity [4] [%] | residual activity [5] [%] | residual activity [6] [%] | residual activity [7] [%] | residual activity [8] [%] | residual activity [9] [%] | inhibition [10] [%] | residual activity [11] [%] | residual activity [12] [%] | residual activity [13] [%] | residual activity [14] [%] | residual activity [15] [%] | residual activity [16] [%] | residual activity [17] [%] | residual activity [18] [%] | residual activity [19] [%] | residual activity [20] [%] | other results
1 | CCC(=O)N[C@H]1CC[C@@H](C(=O)N(C)c2ccc(-c3nc4ccccc4o3)cc2)C1 [BI 99179] | 92 | 89 | 95 | 100 | 97 | 99 | 94 | 88 | 100 | -6.54 | 84 | 89 | 78 | 100 | 98 | 32 | 100 | 85 | 94 | 79 | residual activity [21]: 87%; residual activity [22]: 100%; residual activity [23]: 79%; residual activity [24]: 90%; residual activity [25]: 100%; residual activity [26]: 100%; residual activity [27]: 76%; residual activity [28]: 78%; inhibition [29]: 4.58%; residual activity [30]: 73%; residual activity [31]: 100%; residual activity [32]: 100%; residual activity [33]: 89%; residual activity [34]: 100%; residual activity [35]: 100%; residual activity [36]: 100%; residual activity [37]: 100%; residual activity [38]: 100%
2 | CCC(=O)N[C@@H]1CC[C@H](C(=O)N(C)c2ccc(-c3nc4ccccc4o3)cc2)C1 [BI 99990] | 100 | 96 | 100 | 100 | 100 | 100 | 100 | 100 | 100 | 20.4 | 100 | 100 | 65 | 100 | 100 | 100 | 100 | 100 | 100 | 100 | residual activity [21]: 96%; residual activity [22]: 100%; residual activity [23]: 100%; residual activity [24]: 77%; residual activity [25]: 82%; residual activity [26]: 100%; residual activity [27]: 75%; residual activity [28]: 100%; inhibition [29]: 17.9%; residual activity [30]: 100%; residual activity [31]: 86%; residual activity [32]: 94%; residual activity [33]: 100%; residual activity [34]: 90%; residual activity [35]: 100%; residual activity [36]: 100%; residual activity [37]: 100%; residual activity [38]: 100%
